The values that follow come from patent US12448394B2, “Heterocyclic pyrazole derivatives as type III receptor tyrosine kinase inhibitors” (DEVELOPMENT CENTER FOR BIOTECHNOLOGY, priority 2019, dated 2025).

For orientation: inhibition means how much of the control response was suppressed.

Each structure is given as a SMILES string.

Assay [1] concerns MV4-11 human acute myeloid leukemia cell with FLT3-ITD mutation. The experiment in a line: MV4-11 cell proliferation assay (CellTiter 96). The note with it: Homo sapiens, MV4-11, 72 h, MV4-11 cells, 72 hours treatment, CellTiter96; read-out: anti-proliferation activity MV4-11 (FLT3-ITD), IC50 ranking. The format is cell-based. Here is the method: (§1) Inhibitions of cell growths by compounds were measured using CellTiter™-96 assay. The cytotoxicities of compounds of the invention were evaluated in cell line panels with different signaling pathway dependencies, including MV4-11 human acute myeloid leukemia cell with FLT3-ITD mutation, Molm-14 human acute myeloid leukemia cell with FLT3-ITD mutation, THP-1 human acute monocytic leukemia cell with NRAS G12D mutation, A375 melanoma cell with BRAF V600E mutation, and HCC827 NSCLC cell with EGFR exon 19 deletion mutation.
The compounds disclosed herein were tested in MV4-11 cell proliferation assay to determine their cellular potencies against FLT3 signal pathway dependent cell growths. MV4-11 cells are human acute myeloid leukemia (AML) cells harboring ligand-independent FLT3-ITD activating mutation, which renders the abnormal proliferation of AML cells FLT3 signaling pathway dependent. Inhibition of FLT3 kinase activity will result in reduced growths and/or cell deaths. MV4-11 cells (catalog #CRL-9591) were obtained from the American Type Culture Collection (ATCC, Manassas, VA). Briefly, cells were grown in IMDM medium supplemented with 10% heat inactivated fetal bovine serum and incubated at 37° C. in 5% CO2 atmosphere. Cells were allowed to expand until reaching saturation, at which point they were sub-cultured or harvested for assay use.
(§2) MV4-11, Molm-14, THP-1, A375, and HCC827 cells were seeded into 96-well plates at 6500, 25000, 5000, 2000 and 8000 cells/well, respectively, and incubated at 37° C., 5% CO2 overnight. Then, these seeded cells were treated with increasing concentrations of the test compounds and incubated for another 72 hours. At the end of the incubation, CellTiter96® AQueous One Solution Reagent (Promega, […]) was added and incubated for the additional 2˜4 hours. Cell viability was determined by measuring absorbance at 490 nm using EMax® microplate reader (Molecular Devices, San Jose, CA, USA).

Assay [2] deals with HCC827 NSCLC cell with EGFR exon 19 deletion mutation. The experiment in a line: HCC827 cell proliferation assay (counter screen). To be noted: Homo sapiens, HCC827 cells, 72 hours treatment, CellTiter96, read-out: anti-proliferation activity HCC827 EGFR Exon19 del, IC50 ranking. The format is cell-based, human. On the procedure: as §1
HCC827 cells are non-small cell lung carcinoma (NSCLC) cells encoding EGFR exon 19 deletion mutation, which renders the cell growth dependent on EGFR signaling instead of class III RTKs signaling. HCC827 cells (catalog #CRL-2868) were obtained from the ATCC. Briefly, cells were cultured in RPMI1640 medium supplemented with 10% FBS and incubated at 37° C. in 5% CO2 atmosphere. Cells were allowed to expand until reaching saturation, at which point they were sub-cultured or harvested for assay use.
as §2

Assay [3] relates to Molm-14 human acute myeloid leukemia cell with FLT3-ITD mutation. The experiment in a line: Molm-14 cell proliferation assay (CellTiter 96). It is filed as cell-based. To be noted: Homo sapiens; Molm-14 cells, 72 hours treatment, CellTiter96; read-out: anti-proliferation activity Molm-14 (FLT3-ITD), IC50 ranking. Here is the method:
as §1
The compounds disclosed herein were tested in Molm-14 cell proliferation assay to determine their cellular potencies against FLT3 signal pathway dependent cell growths. Molm-14 cells are human acute myeloid leukemia (AML) cells harboring ligand-independent FLT3-ITD activating mutation, which renders the abnormal proliferation of the AML cells FLT3 signaling pathway dependent. Inhibition of FLT3 kinase activity will result in reduced growths and/or cell deaths. […] Briefly, cells were grown in RPMI 1640 medium supplemented with 10% heat inactivated fetal bovine serum and incubated at 37° C. in 5% CO2 atmosphere. Cells were allowed to expand until reaching saturation, at which point they were sub-cultured or harvested for assay use.
as §2

Assay [4] deals with phosphorylation of FLT3 and its down-stream effector STAT5. The experiment in a line: Western blotting of p-FLT3 and p-STAT5 in MV4-11 cells. It is filed as cell-based. The note with it: Homo sapiens; at 30 nM treatment, 3 hours, FLT3-ITD positive MV4-11 leukemia cells; read-out: inhibition activity against phosphorylation of FLT3 and its down-stream effector STAT5. On the procedure: The potent compounds of formula (I) in EXAMPLE 2 were evaluated, by western blotting assay, for their cellular potencies against phosphorylation of FLT3 and its down-stream effector STAT5 in MV4-11 leukemia cell line with constitutive activation of FLT3 signaling. For western blotting experiments, MV4-11 cells were cultured in IMDM medium containing 0.1% FBS overnight. On the assay day, three million cells were treated with or without compounds for 3 hours in 15 mL tubes. Then, the whole cell lysates were harvested, following extraction by adding 2×SDS Sample Buffer and boiling on hot plate at 105° C. for 15 minutes. The resulting cell lysates were separated by SDS-PAGE electrophoresis and transferred to PVDF membrane. Protein expression was detected using immunoblot with corresponding primary antibody and secondary antibody following the standard procedures. Antibody against p-FLT3 (Tyr-591), anti-rabbit IgG HRP-linked secondary antibody, and anti-mouse IgG HRP-linked secondary antibody were purchased from Cell Signaling Technology. Antibody against p-STAT5 (Tyr-694) was purchased from BD biosciences. Antibody against actin was purchased from R&D system. […] Band intensities of western blot were also quantified by ChemiDoc™ MP Imaging System. Relative intensities of bandscorresponding to drug treatments at a single concentration (30 nM) were compared to the DMSO control group. The percentage (%) inhibition at each drug concentration was calculated using the formula: Percentage(%)inhibition=(1−Relative intensity)×100.

Turning to `CN1CCN(Cc2cccc(-c3cc4c(s3)Cc3c(-c5ccc6cnn(C)c6c5)n[nH]c3-4)c2)CC1` [Compound 14, 3-(1-methyl-1H-indazol-6-yl)-6-(3-((4-methylpiperazin-1-yl)methyl)phenyl)-1,4-dihydrothieno [2′,3′:4,5]cyclopenta[1,2-c] pyrazole], the values for the IC50 in assay [1], in assay [2] and in assay [3] were less than 30 nM, greater than 10000 nM and 30 to 100 nM, respectively.

`Cn1ncc2ccc(-c3n[nH]c4c3Cc3sc(-c5ccc(CN6CCCC6=O)cc5)cc3-4)cc21` [Compound 64, 1-(4-(3-(1-methyl-1H-indazol-6-yl)-1,4-dihydro-thieno[2′,3′:4,5]cyclopenta [1,2-c]pyrazol-6-yl)benzyl)pyrrolidin-2-one]: the IC50 in assay [1] is less than 30 nM; in assay [2] it was greater than 10000 nM; in assay [3] it was less than 30 nM. Moreover, the inhibition at 0.03 µM in assay [4] was greater than 50%.

On to `Cn1ncc2ccc(-c3n[nH]c4c3Cc3sc(-c5cc(F)c(CN6CCOCC6)c(F)c5)cc3-4)cc21` [Compound 53, 4-(2,6-difluoro-4-(3-(1-methyl-1H-indazol-6-yl)-1,4-dihydrothieno [2′,3′:4,5]cyclopenta [1,2-c]pyrazol-6-yl)benzyl)morpholine], for which the IC50 in assay [1] was 30 to 100 nM; in assay [2], greater than 10000 nM; in assay [3], 100 to 300 nM. Also, the inhibition at 0.03 µM in assay [4] was greater than 50%.

Regarding `Cn1ncc2ccc(-c3n[nH]c4c3Cc3sc(-c5ccc(CN6CCC(F)(F)C6)cc5)cc3-4)cc21` [Compound 67, 6-(4-((3,3-difluoro-pyrrolidin-1-yl)methyl)phenyl)-3-(1-methyl-1H-indazol-6-yl)-1,4-dihydro-thieno[2′,3′:4,5]cyclopenta [1,2-c]pyrazole], the results for the IC50 in assay [1], in assay [2] and in assay [3] were 100 to 300 nM, greater than 10000 nM and 100 to 300 nM, respectively.

On to `CN(C)c1ccc(-c2cc3c(s2)Cc2c(-c4ccc5cnn(C)c5c4)n[nH]c2-3)cn1` [Compound 5, N,N-dimethyl-5-(3-(1-methyl-1H-indazol-6-yl)-1,4-dihydrothieno [2′,3′:4,5]cyclopenta[1,2-c]pyrazol-6-yl)pyridin-2-amine], for which the IC50 in assay [1] is 30 to 100 nM; in assay [2], greater than 10000 nM; in assay [3], 100 to 300 nM.

As for `Cn1ncc2ccc(-c3n[nH]c4c3Cc3sc(-c5ccc(CC6CCOCC6)cc5)cc3-4)cc21` [Compound 77, 3-(1-methyl-1H-indazol-6-yl)-6-(4-((tetrahydro-2H-pyran-4-yl)methyl)phenyl)-1,4-dihydrothieno [2′,3′:4,5]cyclopenta [1,2-c]pyrazole], the IC50 in assay [1] is 100 to 300 nM; in assay [2], greater than 10000 nM; in assay [3], 100 to 300 nM.

In the case of `Cc1ccc(-c2cc3c(s2)Cc2c(-c4ccc5cnn(C)c5c4)n[nH]c2-3)cn1` [Compound 11, 3-(1-methyl-1H-indazol-6-yl)-6-(6-methylpyridin-3-yl)-1,4-dihydrothieno [2′,3′:4,5]cyclopenta[1,2-c] pyrazole], the results for the IC50 in assay [1], in assay [2] and in assay [3] were less than 30 nM, greater than 10000 nM and 30 to 100 nM, respectively.

In the case of `Cn1ncc2ccc(-c3n[nH]c4c3Cc3sc(-c5ccc(C=C6CCOCC6)cc5)cc3-4)cc21` [Compound 76, 3-(1-methyl-1H-indazol-6-yl)-6-(4-((tetrahydro-4H-pyran-4-ylidene)methyl)phenyl)-1,4-dihydrothieno[2′,3′:4,5] cyclopenta[1,2-c]pyrazole], the IC50 in assay [1] is 300 to 1000 nM; in assay [2] it was greater than 10000 nM; in assay [3], 300 to 1000 nM.

For `CN(c1ccc(-c2cc3c(s2)Cc2c(-c4ccc5cnn(C)c5c4)n[nH]c2-3)cc1)C1CCOCC1` [Compound 73, N-methyl-N-(4-(3-(1-methyl-1H-indazol-6-yl)-1,4-dihydrothieno [2′,3′:4,5]cyclopenta [1,2-c]pyrazol-6-yl)phenyl)tetrahydro-2H-pyran-4-amine], the IC50 in assay [1] was 100 to 300 nM; in assay [2], greater than 10000 nM; in assay [3] it was 300 to 1000 nM.

With `Cn1ncc2ccc(-c3n[nH]c4c3Cc3sc(-c5ccc(CN6CC(F)(F)C6)cc5)cc3-4)cc21` [Compound 104, 6-(4-((3,3-difluoroazeti-din-1-yl)methyl)phenyl)-3-(1-methyl-1H-indazol-6-yl)-1,4-dihydrothieno [2′,3′:4,5]cyclopenta [1,2-c]pyrazole], the IC50 in assay [1] was 30 to 100 nM; in assay [2], greater than 10000 nM; in assay [3], 100 to 300 nM.

As for `Cn1ncc2ccc(-c3n[nH]c4c3Cc3sc(-c5ccc(CN6CCOCC6)cn5)cc3-4)cc21` [Compound 95, 4-((6-(3-(1-methyl-1H-indazol-6-yl)-1,4-dihydro-thieno[2′,3′:4,5]cyclopenta [1,2-c]pyrazol-6-yl)pyridin-3-yl)methyl) morpholine], the inhibition at 0.03 µM in assay [4] is greater than 50%.

For `Cn1ncc2ccc(-c3n[nH]c4c3Cc3sc(-c5cccc(OCCN6CCOCC6)c5)cc3-4)cc21` [Compound 70, 4-(2-(3-(3-(1-methyl-1H-indazol-6-yl)-1,4-dihydro-thieno[2′,3′:4,5]cyclopenta [1,2-c]pyrazol-6-yl)phenoxy)ethyl)morpholine], the IC50 in assay [1] is 30 to 100 nM; in assay [2] it was greater than 10000 nM; in assay [3], 100 to 300 nM.

Consider `CC(C)Cn1ncc2ccc(-c3n[nH]c4c3Cc3sc(-c5ccc(CN6CCOCC6)cc5)cc3-4)cc21` [Compound 35, 4-(4-(3-(1-isobutyl-1H-indazol-6-yl)-1,4-dihydro-thieno[2′,3′:4,5]cyclopenta [1,2-c]pyrazol-6-yl)benzyl)morpholine], for which the IC50 in assay [1] is 100 to 300 nM; in assay [2], greater than 10000 nM; in assay [3], 100 to 300 nM.

`Cc1cc(-c2cc3c(s2)Cc2c(-c4ccc5cnn(C)c5c4)n[nH]c2-3)ccc1CN1CCOCC1` [Compound 26, 4-(2-methyl-4-(3-(1-methyl-1H-indazol-6-yl)-1,4-dihydrothieno[2′,3′:4,5]cyclopenta[1,2-c]pyrazol-6-yl)benzyl)morpholine]: the IC50 in assay [1] is 100 to 300 nM; in assay [2] it was greater than 10000 nM; in assay [3], 100 to 300 nM.

For the molecule `Cn1ncc2ccc(-c3n[nH]c4c3Cc3sc(-c5ccc(CN6CCOCC6)c(C(F)(F)F)c5)cc3-4)cc21` [Compound 27, 4-(4-(3-(1-methyl-1H-indazol-6-yl)-1,4-dihydrothieno[2′,3′:4,5]cyclopenta[1,2-c]pyrazol-6-yl)-2-(trifluoromethyl)benzyl)morpholine], the IC50 in assay [1] was 300 to 1000 nM; in assay [2] it was greater than 10000 nM; in assay [3], 1000 to 10000 nM.
